These are literature values, as cited in patent US6465192B2, “Compounds and methods for the inhibition of protein-protein interactions” (priority 1997, dated 2002).

The conditions of data set [1]: halogen substitutions of the phenyl ring, SN1.

Turning to penicillin, the “forward reaction rate with lysine side chains in proteins” value (physiological conditions) is given as “about 1×10^−5 /M/sec”. For the same compound, the “non-specific covalent bonding rate constant to form stable bonds with amino acid side chains” value (side chains such as those of serine and lysine) is recorded as “about 8×10^−6 /M/sec”. For `COc1ccc([N+](=O)[O-])c(Br)c1CBr` [R = Br, 2-methoxy-5-nitro-6-bromobenzyl bromide], the Relative reaction rate in data set [1] is recorded as 0.006. Take `COc1ccc([N+](=O)[O-])c(F)c1CBr` [R = F, 2-methoxy-5-nitro-6-fluorobenzyl bromide]: the Relative reaction rate in data set [1] was 0.05.
